Source: patent EP4603105A1, “PHARMACEUTICAL COMPOSITION CONTAINING CYCLIC COMPOUND HAVING SELECTIVE KRAS INHIBITORY EFFECT AGAINST HRAS AND NRAS” (CHUGAI SEIYAKU KABUSHIKI KAISHA, priority 2022, dated 2024)
*1 amine or outer side, *2 acyl side, *3 side chain or, on linkers, in order; H or OH if unused. Where a SMILES comes first, the peptide text is derived from it. Bridges are numbered along the chain shown (N, C = ends). [ ]: non-standard residue; d: D form. The star is where a group is joined. hPhe(3-Cl-4-CF3) = N[C@@H](CCc1ccc(C(F)(F)F)c(Cl)c1)C(=O)O; NPrPhe(4-CF3) = CCCN[C@@H](Cc1ccc(C(F)(F)F)cc1)C(=O)O; Morpholine(3S-CO) = O=C(O)[C@@H]1COCCN1; NMeGly(cPent) = CN[C@H](C(=O)O)C1CCCC1; Pro(4,4-F2) = O=C(O)[C@@H]1CC(F)(F)CN1; NMeI = CC[C@H](C)[C@H](NC)C(=O)O; NMeD = CN[C@@H](CC(=O)O)C(=O)O; NMeL = CN[C@@H](CC(C)C)C(=O)O; X10 = N#CCN(CC(=O)[*:2])[*:1]; Morpholide = C1CN(*)CCO1; Ac5c = NC1(C(=O)O)CCCC1; Aze = O=C(O)[C@@H]1CCN1; Ac4c = NC1(C(=O)O)CCC1; Sar = CNCC(=O)O

Columns and labels:
[1] = test system: human lung cancer strain NCI-H441; type: cell-based
In short: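 Readout: […] after the ATP-based reagent. Compound: serial dilutions in dimethyl sulfoxide.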

HRAS wild-type protein = HRAS wild-type protein (Homo sapiens, UniProt P01112); assay: Binding to HRAS by surface plasmon resonance (SPR), KD and KD ratio to KRAS
In short: (§1)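 Affinity is measured by surface plasmon resonance at 30°C against captured, GDP-loaded RAS carrying a biotinylated Avi tag. Compounds are titrated by single-cycle kinetics, and KD comes from a 1:1 fit.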

[2] = molecular target: GDP-bound NRAS wild-type protein (Homo sapiens, UniProt P01111); assay: Binding to NRAS by surface plasmon resonance (SPR), KD and KD ratio to KRAS
In short: as §1

[3] = ratio of the KD value with respect to HRAS wild-type protein to the KD value with respect to KRAS
[4] = ratio of the KD value with respect to GDP-bound NRAS wild-type protein to the KD value with respect to KRAS
[5] = ratio of KD for HRAS wild-type protein to KD for KRAS
[6] = ratio of KD for GDP-bound NRAS wild-type protein to KD for KRAS
[7] = ratio of KD value for HRAS wild-type protein to KD value for KRAS (SPR)
[8] = ratio of KD value for GDP-bound NRAS wild-type protein to KD value for KRAS (SPR)

GDP-bound NRAS wild-type protein, sequence (P01111 whole entry): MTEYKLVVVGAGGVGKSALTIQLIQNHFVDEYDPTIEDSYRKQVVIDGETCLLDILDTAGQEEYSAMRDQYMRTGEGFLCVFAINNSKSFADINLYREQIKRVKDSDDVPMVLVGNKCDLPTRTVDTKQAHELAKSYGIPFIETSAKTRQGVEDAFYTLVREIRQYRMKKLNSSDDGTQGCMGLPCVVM
HRAS wild-type protein, sequence (P01112 whole entry): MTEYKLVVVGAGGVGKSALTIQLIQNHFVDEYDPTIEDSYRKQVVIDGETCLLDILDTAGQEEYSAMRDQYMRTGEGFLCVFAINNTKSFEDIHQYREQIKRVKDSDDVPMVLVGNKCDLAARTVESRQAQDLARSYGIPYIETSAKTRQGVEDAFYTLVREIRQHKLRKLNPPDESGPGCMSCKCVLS

IC50 [1]	SMILES	HRAS /KRAS (HRAS wild-type protein; [3])	NRAS /KRAS [2, 4]	HRAS /KRAS (HRAS wild-type protein; [5])	NRAS /KRAS [2, 6]	HRAS /KRAS (HRAS wild-type protein; [7])	NRAS /KRAS [2, 8]
2.5 nM	CC[C@H](C)[C@@H]1NC(=O)[C@H](CC(F)(F)F)N(C)C(=O)C[C@@H](C(=O)N2CCOCC2)N(C)C(=O)[C@H](C2CCCC2)N(C)C(=O)C2(CCCC2)NC(=O)[C@@H]2CCCN2C(=O)[C@H](CCc2cc(F)c(C(F)(F)F)c(F)c2)NC(=O)CN(C)C(=O)[C@H](Cc2ccc(C(F)(F)F)cc2)N2CCCC[C@@H](C2=O)N(C)C(=O)CN(C)C1=O [PP0594]	B (a compound having 3 or more and less than 10 is denoted as B)	C (A compound having a KD ratio of 0.1 or more and less than 3 is denoted as C)	–	–	–	–
72.4 nM	CCCN1C(=O)[C@@H]2CCN2C(=O)CN(C)C(=O)[C@H]([C@@H](C)CC)NC(=O)[C@H](CC(C)C)N(C)C(=O)C[C@@H](C(=O)N2CCOCC2)NC(=O)[C@H](C2CCCC2)N(C)C(=O)C2(CCC2)NC(=O)[C@@H]2CC(F)(F)CN2C(=O)[C@H](CCc2ccc(C(F)(F)F)c(Cl)c2)NC(=O)CN(C)C(=O)[C@@H]1Cc1ccc(C(F)(F)F)cc1 [PP0352] ([NMeL]I[Sar][Aze][NPrPhe(4-CF3)][Sar][hPhe(3-Cl-4-CF3)][Pro(4,4-F2)][Ac4c][NMeGly(cPent)]D-Morpholide; lactam N-11)	–	–	B (a compound having 3 or more and less than 10 is denoted as B)	C (A compound having a KD ratio of 0.1 or more and less than 3 is denoted as C)	–	–
1260 nM	CC[C@H](C)[C@@H]1NC(=O)[C@H](CC(C)C)N(C)C(=O)C[C@@H](C(=O)N2CCOCC2)N(C)C(=O)[C@H](C2CCCC2)N(C)C(=O)C2(CCCC2)NC(=O)[C@@H]2CCCN2C(=O)[C@H](CCc2cc(F)c(C(F)(F)F)c(F)c2)NC(=O)CN(C)C(=O)[C@H](Cc2ccc(C(F)(F)F)cc2)N2CCCCC[C@@H](C2=O)N(C)C(=O)[C@@H]2CCCN2C1=O [PP0485]	B (a compound having 3 or more and less than 10 is denoted as B)	A (a compound having 10 or more and less than 20 is denoted as A)	–	–	–	–
4.8 nM	C=CCC[C@H]1C(=O)N[C@@H]([C@@H](C)CC)C(=O)N(C)CC(=O)N(C)[C@H]2CCCCN(C2=O)[C@@H](Cc2ccc(C(F)(F)F)cc2)C(=O)N(C)CC(=O)N[C@@H](CCc2cc(F)c(C(F)(F)F)c(F)c2)C(=O)N2C[C@H](OCC)C[C@H]2C(=O)N[C@](C)(CC=C)C(=O)N(C)[C@@H](C2CCCC2)C(=O)N(C)[C@H](C(=O)N2CCOCC2)CC(=O)N1C [PP0875]	–	–	B (a compound having 3 or more and less than 10 is denoted as B)	C (A compound having a KD ratio of 0.1 or more and less than 3 is denoted as C)	–	–
17.4 nM	CCCN1C(=O)CN(C)C(=O)CN(C)C(=O)[C@H]([C@@H](C)CC)NC(=O)[C@H](CC(C)C)N(C)C(=O)C[C@@H](C(=O)N2CCOCC2)N(C)C(=O)[C@H]([C@@H](C)CC)N(C)C(=O)C2(CCCC2)NC(=O)[C@@H]2CCCN2C(=O)[C@H](CCc2ccc(C(F)(F)F)c(Cl)c2)NC(=O)CN(C)C(=O)[C@@H]1Cc1ccc(C(F)(F)F)cc1 [PP1926] ([NMeL]I[Sar][Sar][NPrPhe(4-CF3)][Sar][hPhe(3-Cl-4-CF3)]P[Ac5c][NMeI][NMeD]-Morpholide; lactam N-11)	B (a compound having 3 or more and less than 10 is denoted as B)	B (a compound having 3 or more and less than 10 is denoted as B)	–	–	–	–
144 nM	CCO[C@@H]1C[C@H]2C(=O)NC3(CCC3)C(=O)N(C)[C@@H](C(CC)CC)C(=O)N(C)[C@H](CC)CC(=O)N(C)[C@@H](CC3CC3)C(=O)N[C@@H]([C@@H](C)CC)C(=O)N(C)CC(=O)N(C)[C@H]3C/C=C\CCN(C3=O)[C@@H](Cc3ccc(C(F)(F)F)cc3)C(=O)N(C)CC(=O)N[C@@H](CCc3cc(F)c(C(F)(F)F)c(F)c3)C(=O)N2C1 [PP1630]	–	–	–	–	A (a compound having 10 or more and less than 20 is denoted as A)	A (a compound having 10 or more and less than 20 is denoted as A)
3.6 nM	CCC[C@H]1C(=O)N[C@@H]([C@@H](C)CC)C(=O)N(C)CC(=O)N(C)[C@H]2C/C=C\CCN(C2=O)[C@@H](Cc2ccc(C(F)(F)F)cc2)C(=O)N(C)CC(=O)N[C@@H](CCc2cc(F)c(C(F)(F)F)c(F)c2)C(=O)N2C[C@H](OCC)C[C@H]2C(=O)NC2(CC(F)(F)C2)C(=O)N(C)[C@@H](C2CCCC2)C(=O)N(C)[C@H](C(=O)N(C)CCC)CC(=O)N1C [PP1736]	–	–	–	–	A (a compound having 10 or more and less than 20 is denoted as A)	A (a compound having 10 or more and less than 20 is denoted as A)
22.2 nM	CC[C@H](C)[C@@H]1NC(=O)[C@H](COC)N(C)C(=O)C[C@@H](C(=O)N2CCOCC2)N(C)C(=O)[C@H](C2CCCC2)N(C)C(=O)C2(CCCC2)NC(=O)[C@@H]2CC(F)(F)CN2C(=O)[C@H](CCc2cc(F)c(C(F)(F)F)c(F)c2)NC(=O)CN(C)C(=O)[C@H](Cc2ccc(C(F)(F)F)cc2)N2CCCCC[C@@H](C2=O)N(C)C(=O)CN(C)C1=O [PP0846]	–	–	B (a compound having 3 or more and less than 10 is denoted as B)	B (a compound having 3 or more and less than 10 is denoted as B)	–	–
5.9 nM	CCOC[C@H]1C(=O)N[C@@H]([C@@H](C)CC)C(=O)N(C)CC(=O)N(C)[C@H]2C/C=C\CCN(C2=O)[C@@H](Cc2ccc(C(F)(F)F)cc2)C(=O)N(C)CC(=O)N[C@@H](CCc2cc(F)c(C(F)(F)F)c(F)c2)C(=O)N2C[C@@H](C)C[C@H]2C(=O)NC2(CC(C)(C)C2)C(=O)N(C)[C@@H](C2CCCC2)C(=O)N(C)[C@H](C(=O)N(C)CC)CC(=O)N1C [PP2042]	A (a compound having 10 or more and less than 20 is denoted as A)	A (a compound having 10 or more and less than 20 is denoted as A)	–	–	–	–
27.3 nM	CCCO[C@@H]1C[C@H]2C(=O)NC3(CC(C)(C)C3)C(=O)N(C)[C@@H](C3CCCC3)C(=O)N(C)[C@H](C(=O)N3CCCC3)CC(=O)N(C)[C@H]3CCCc4ccc(cc4)C[C@@H](C(=O)N(C)CC(=O)N[C@@H](CCc4ccc(C(F)(F)F)c(OC)c4)C(=O)N2C1)N1CC/C=C\C[C@@H](C1=O)N(C)C(=O)CN(C)C(=O)[C@H]([C@@H](C)CC)NC3=O [PP3065]	–	–	B (a compound having 3 or more and less than 10 is denoted as B)	A (a compound having 10 or more and less than 20 is denoted as A)	–	–
360 nM	CC[C@H](C)[C@@H]1NC(=O)[C@H](COC)N(C)C(=O)C[C@@H](C(=O)N2CCOCC2)N(C)C(=O)[C@H](C2CCCC2)N(C)C(=O)C2(CCC2)NC(=O)[C@@H]2C[C@H](OC)CN2C(=O)[C@H](CCc2cc(F)c(C(F)(F)F)c(F)c2)NC(=O)CN(C)C(=O)[C@H](Cc2ccc(C(F)(F)F)cc2)N2CCCCC[C@@H](C2=O)N(C)C(=O)CN(C)C1=O [PP0836]	–	–	B (a compound having 3 or more and less than 10 is denoted as B)	B (a compound having 3 or more and less than 10 is denoted as B)	–	–
13.3 nM	CCCN1C(=O)CN(C)C(=O)CN(C)C(=O)[C@H]([C@@H](C)CC)NC(=O)[C@H](CC(C)C)N(C)C(=O)C[C@@H](C(=O)N2CCOCC2)N(C)C(=O)[C@H](C2CCCC2)N(C)C(=O)C2(CCCC2)NC(=O)[C@@H]2COCCN2C(=O)[C@H](CCc2ccc(C(F)(F)F)c(Cl)c2)NC(=O)CN(C)C(=O)[C@@H]1Cc1ccc(C(F)(F)F)cc1 [PP0265] ([NMeL]I[Sar][Sar][NPrPhe(4-CF3)][Sar][hPhe(3-Cl-4-CF3)][Morpholine(3S-CO)][Ac5c][NMeGly(cPent)][NMeD]-Morpholide; lactam N-11)	–	–	C (A compound having a KD ratio of 0.1 or more and less than 3 is denoted as C)	B (a compound having 3 or more and less than 10 is denoted as B)	–	–
4.2 nM	CCO[C@@H]1C[C@H]2C(=O)NC3(CCC3)C(=O)N(C)[C@@H](C3CCCC3)C(=O)N(C)[C@H](C(=O)N3CCOCC3)CC(=O)N(C)[C@@H](CC3CCC3)C(=O)N[C@@H]([C@@H](C)CC)C(=O)N(C)CC(=O)N(C)[C@H]3CCCCN(C3=O)[C@@H](Cc3ccc(C(F)(F)F)cc3)C(=O)N(C)CC(=O)N[C@@H](CCc3cc(F)c(C(F)(F)F)c(F)c3)C(=O)N2C1 [PP0713]	B (a compound having 3 or more and less than 10 is denoted as B)	C (A compound having a KD ratio of 0.1 or more and less than 3 is denoted as C)	–	–	–	–
9.3 nM	CCCN1C(=O)[C@@H]2CCN2C(=O)CN(CC#N)C(=O)[C@H]([C@@H](C)CC)NC(=O)[C@H](CC(C)C)N(C)C(=O)C[C@@H](C(=O)N2CCOCC2)N(C)C(=O)[C@H](C2CCCC2)N(C)C(=O)C2(CCCC2)NC(=O)[C@@H]2CCCN2C(=O)[C@H](CCc2ccc(C(F)(F)F)c(Cl)c2)NC(=O)CN(C)C(=O)[C@@H]1Cc1ccc(C(F)(F)F)cc1 [PP0275] ([NMeL]I[X10][Aze][NPrPhe(4-CF3)][Sar][hPhe(3-Cl-4-CF3)]P[Ac5c][NMeGly(cPent)][NMeD]-Morpholide; lactam N-11)	–	–	C (A compound having a KD ratio of 0.1 or more and less than 3 is denoted as C)	C (A compound having a KD ratio of 0.1 or more and less than 3 is denoted as C)	–	–

SMILES	IC50 [1]	HRAS /KRAS (HRAS wild-type protein; [3])	NRAS /KRAS [2, 4]	HRAS /KRAS (HRAS wild-type protein; [5])	NRAS /KRAS [2, 6]	HRAS /KRAS (HRAS wild-type protein; [7])	NRAS /KRAS [2, 8]
CCCO[C@@H]1C[C@H]2C(=O)NC3(CC(C)(C)C3)C(=O)N(C)[C@@H](C3CCCC3)C(=O)N(C)[C@H](C(=O)N3CCCCC3)CC(=O)N(C)[C@H]3CCCc4ccc(cc4)C[C@@H](C(=O)N(C)CC(=O)N[C@@H](CCc4ccc(C(F)(F)F)c(OC)c4)C(=O)N2C1)N1CC/C=C\C[C@@H](C1=O)N(C)C(=O)CN(C)C(=O)[C@H]([C@@H](C)CC)NC3=O [PP3064]	26.9 nM	–	–	B (a compound having 3 or more and less than 10 is denoted as B)	B (a compound having 3 or more and less than 10 is denoted as B)	–	–
